Common to all, as to type: in vivo
Assay [1] concerns Avena fatua (AVEFA). Briefly: Pre-emergence herbicidal activity, glasshouse pot test. To be noted: Avena fatua, 312 h; Rate 250 g/ha; pre-emergence spray; evaluated after 13 days; read-out: Pre-emergence activity AVEFA (100=total damage to plant; 0=no damage to plant). Summed up:
(§1)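 Test species are sown in pots of standard soil and sprayed either one day after sowing or after 8 days of cultivation, for pre- and post-emergence respectively. Plants grow in a controlled glasshouse, watered twice daily, and damage is assessed at 13 days, 0 to 100.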

Assay [2] deals with Alopecurus myosuroides (ALOMY). The assay is described as above. To be noted: Alopecurus myosuroides, 312 h; Rate 250 g/ha; pre-emergence spray; evaluated after 13 days; read-out: Pre-emergence activity ALOMY (100=total damage to plant; 0=no damage to plant). In short, it runs like this:
as §1

In assay [3] the test system is Lolium perenne (LOLPE). Described as above. The conditions noted are these: Lolium perenne, 312 h; Rate 250 g/ha; pre-emergence spray; evaluated after 13 days; read-out: Pre-emergence activity LOLPE (100=total damage to plant; 0=no damage to plant). In short, it runs like this:
as §1

Assay [4] concerns Echinochloa crus-galli (ECHCG). The description is as above. The conditions noted are these: Echinochloa crus-galli, 312 h; Rate 250 g/ha; pre-emergence spray; evaluated after 13 days; read-out: Pre-emergence activity ECHCG (100=total damage to plant; 0=no damage to plant). In short, it runs like this:
as §1

Assay [5] has as its system Avena fatua (AVEFA). Kind of assay: Post-emergence herbicidal activity, glasshouse pot test. To be noted: Avena fatua, 312 h, rate 250 g/ha, evaluated after 13 days, glasshouse, read-out: Post-emergence activity AVEFA (100=total damage to plant; 0=no damage to plant). Summed up: as §1
Assay [6] concerns Alopecurus myosuroides (ALOMY). Described as above. To be noted: Alopecurus myosuroides, 312 h, rate 250 g/ha, evaluated after 13 days, glasshouse, read-out: Post-emergence activity ALOMY (100=total damage to plant; 0=no damage to plant). Summed up:
as §1

The test system of assay [7] is Lolium perenne (LOLPE). The description is as above. The conditions noted are these: Lolium perenne, 312 h, rate 250 g/ha, evaluated after 13 days, glasshouse, read-out: Post-emergence activity LOLPE (100=total damage to plant; 0=no damage to plant). In short, it runs like this:
as §1

Assay [8] relates to Echinochloa crus-galli (ECHCG). Described as above. To be noted: Echinochloa crus-galli, 312 h, rate 250 g/ha, evaluated after 13 days, glasshouse, read-out: Post-emergence activity ECHCG (100=total damage to plant; 0=no damage to plant). In short, it runs like this: as §1

As to `CCc1ccc(Oc2ncc(Cl)cn2)cc1C1=C(O)CC(C)(C)CC1=O` [Example A-288], the pest or weed control at 250 g/ha with Avena fatua (AVEFA) [1] is 60%; in assay [2], 90%; in the assay on Lolium perenne (LOLPE) [3], 100%; in assay [4], 100%; in the assay on Avena fatua (AVEFA) [5] it was 90%; in assay [6], 100%. In addition, the pest or weed control at 250 g/ha is 90% in the assay on Lolium perenne (LOLPE) [7] and 100% in assay [8].
In the case of `CCc1ccc(Oc2cnc3ccc(Br)cc3n2)cc1C1=C(O)CC(C)(C)CC1=O` [Example A-289], the pest or weed control at 250 g/ha was 40% in the assay on Avena fatua (AVEFA) [1]; 60% in assay [2]; 90% with Lolium perenne (LOLPE) [3]; 100% in assay [4]; 100% in the assay with Avena fatua (AVEFA) [5]; 100% in assay [6]. In addition, the pest or weed control at 250 g/ha (with Lolium perenne (LOLPE) [7]; in assay [8]) was 100% in each case.
On to `CCc1ccc(Oc2ccc(C#N)cc2C(F)(F)F)cc1C1=C(O)CC(C)(C)CC1=O` [Example A-290], for which the pest or weed control at 250 g/ha was determined as 0% in the assay on Avena fatua (AVEFA) [1]; 0% in assay [2]; 0% with Lolium perenne (LOLPE) [3]; 20% in assay [4]; 0% in the assay with Avena fatua (AVEFA) [5]; 0% in assay [6]. In addition, the pest or weed control at 250 g/ha amounted to 10% with Lolium perenne (LOLPE) [7] and 60% in assay [8].
For `CCc1ccc(Oc2cnc3ccccc3n2)cc1C1=C(O)CC(C)(C)CC1=O` [Example A-291], the pest or weed control at 250 g/ha in the assay with Avena fatua (AVEFA) [1] is 90%; in assay [2], 70%; with Lolium perenne (LOLPE) [3], 100%; in assay [4], 100%; in the assay with Avena fatua (AVEFA) [5], 100%; in assay [6], 100%. Moreover, the pest or weed control at 250 g/ha (in the assay with Lolium perenne (LOLPE) [7]; in assay [8]) was 100% in each case.
Consider `CCc1ccc(Oc2ccc3ccccc3n2)cc1C1=C(O)CC(C)(C)CC1=O` [Example A-292], for which the pest or weed control at 250 g/ha in the assay on Avena fatua (AVEFA) [1] is 50%; in assay [2] it was 90%; in the assay with Lolium perenne (LOLPE) [3], 100%; in assay [4], 100%; with Avena fatua (AVEFA) [5], 90%; in assay [6], 100%. The pest or weed control at 250 g/ha came out at 90% in the assay on Lolium perenne (LOLPE) [7] and 100% in assay [8].
Regarding `CCc1ccc(Oc2nc3cc(Cl)ccc3s2)cc1C1=C(O)CC(C)(C)CC1=O` [Example A-293], the pest or weed control at 250 g/ha with Avena fatua (AVEFA) [1] was 30%; in assay [2], 80%; in the assay with Lolium perenne (LOLPE) [3] it was 100%; in assay [4], 100%; in the assay on Avena fatua (AVEFA) [5], 100%; in assay [6], 100%. The pest or weed control at 250 g/ha (with Lolium perenne (LOLPE) [7]; in assay [8]) was 100% throughout.
Regarding `CCc1ccc(Oc2ccc([N+](=O)[O-])cc2C(F)(F)F)cc1C1=C(O)CC(C)(C)CC1=O` [Example A-294], the pest or weed control at 250 g/ha in the assay with Avena fatua (AVEFA) [1] was 0%; in assay [2], 60%; in the assay with Lolium perenne (LOLPE) [3], 70%; in assay [4], 90%; in the assay on Avena fatua (AVEFA) [5], 40%; in assay [6], 40%. In addition, the pest or weed control at 250 g/ha in the assay on Lolium perenne (LOLPE) [7] worked out at 20%; in assay [8], 80%.
Regarding `CCc1ccc(Oc2ccc(C(F)(F)F)c(C#N)c2)cc1C1=C(O)CC(C)(C)CC1=O` [Example A-295], the pest or weed control at 250 g/ha in the assay on Avena fatua (AVEFA) [1] was 20%; in assay [2], 50%; in the assay with Lolium perenne (LOLPE) [3] it was 50%; in assay [4] it was 70%; in the assay with Avena fatua (AVEFA) [5], 60%; in assay [6], 80%. Further, the values for the pest or weed control at 250 g/ha (in the assay with Lolium perenne (LOLPE) [7]; in assay [8]) were 40% and 100%, respectively.
`CCc1ccc(Oc2ncc(Br)cn2)cc1C1=C(O)CC(C)(C)CC1=O` [Example A-297]: the pest or weed control at 250 g/ha in the assay on Avena fatua (AVEFA) [1] is 50%; in assay [2], 70%; with Lolium perenne (LOLPE) [3] it was 100%; in assay [4], 100%; in the assay on Avena fatua (AVEFA) [5], 100%; in assay [6], 100%. Also, the pest or weed control at 250 g/ha (in the assay with Lolium perenne (LOLPE) [7]; in assay [8]) was 100% each time.
As for `CCc1ccc(Oc2cnc3cc(F)ccc3n2)cc1C1=C(O)CC(C)(C)CC1=O` [Example A-298], the pest or weed control at 250 g/ha (with Avena fatua (AVEFA) [1]; in assay [2]; in the assay on Lolium perenne (LOLPE) [3]; in assay [4]; in the assay with Avena fatua (AVEFA) [5]; in assay [6]) was 100% throughout. The pest or weed control at 250 g/ha (in the assay with Lolium perenne (LOLPE) [7]; in assay [8]) was 100% throughout.
As to `CCc1ccc(Oc2nc3ccc([N+](=O)[O-])cc3s2)cc1C1=C(O)CC(C)(C)CC1=O` [Example A-299], the pest or weed control at 250 g/ha stood at 20% with Avena fatua (AVEFA) [1]; 50% in assay [2]; 100% in the assay with Lolium perenne (LOLPE) [3]; 100% in assay [4]; 90% in the assay on Avena fatua (AVEFA) [5]; 90% in assay [6]. Further, the pest or weed control at 250 g/ha in the assay with Lolium perenne (LOLPE) [7] is 80%; in assay [8], 100%.
Regarding `CCc1ccc(Oc2nc3ccc(OC)cc3s2)cc1C1=C(O)CC(C)(C)CC1=O` [Example A-300], the pest or weed control at 250 g/ha with Avena fatua (AVEFA) [1] turned out to be 0%; in assay [2], 80%; in the assay on Lolium perenne (LOLPE) [3], 100%; in assay [4] it was 100%; with Avena fatua (AVEFA) [5] it was 70%; in assay [6], 80%. Further, the results for the pest or weed control at 250 g/ha (in the assay with Lolium perenne (LOLPE) [7]; in assay [8]) were 60% and 100%, respectively.
With `CCc1ccc(Oc2ccc(Cl)cn2)cc1C1=C(O)CC(C)(C)CC1=O` [Example A-301], the pest or weed control at 250 g/ha came to 60% in the assay on Avena fatua (AVEFA) [1]; 70% in assay [2]; 100% in the assay with Lolium perenne (LOLPE) [3]; 100% in assay [4]; 60% with Avena fatua (AVEFA) [5]; 100% in assay [6]. The figures for the pest or weed control at 250 g/ha (with Lolium perenne (LOLPE) [7]; in assay [8]) were 90% and 100%, respectively.
For `CC1(C)OC(C)(C)C(O)=C(c2cc(Oc3ccc(Cl)cc3)ccc2OC(F)(F)F)C1=O` [Example A-302], the pest or weed control at 250 g/ha came out at 40% in the assay with Avena fatua (AVEFA) [1]; 10% in assay [2]; 20% with Lolium perenne (LOLPE) [3]; 60% in assay [4]; 50% in the assay with Avena fatua (AVEFA) [5]; 60% in assay [6]. The pest or weed control at 250 g/ha turned out to be 70% in the assay on Lolium perenne (LOLPE) [7] and 100% in assay [8].

The record behind these values is patent US8865623B2, “Herbicidally active cyclic diones and derivatives thereof, processes for their preparation, compositions, and method of controlling weeds” (Syngenta Limited, priority 2009, dated 2014).
